According to patent publication US20150110849A1, “ANTIMICROBIAL ACCESSORY FOR AN IMPLANTABLE MEDICAL DEVICE” (Medtronic, Inc., priority 2009, published 2015):
Where a name gives a salt, the structure may show the parent alone.

Assay: zone of inhibition (ZOI) of antimicrobial accessories
Assay type: cell-based
Text: Examples 30-54 illustrate zone of inhibition (ZOI) data collected for antimicrobial accessories including minocycline HCl and/or rifampin. Various polymers and excipients were used in combination with minocycline HCl and/or rifampin. […] In Table 22, M stands for minocycline HCl, R stands for rifampin, SiO2 is silica, PVP is polyvinylpyrrolidone, BIO-PSA 7-4601 is a silicone PSA available from Dow Corning Corp, Midland, Mich., MDX4-4210 is a liquid silicone rubber available from Dow Corning, Corp., Midland, Mich., LSR Q7-4850 is a liquid silicone rubber available from Dow Corning, Corp., Midland, Mich., and MED-1137 a silicone adhesive available from NuSil Silicone Technology, Carpinteria, Calif.

SMILES	Average ZOI [mm]
CN(C)c1ccc(O)c2c1C[C@H]1C[C@H]3[C@H](N(C)C)C(O)=C(C(N)=O)C(=O)[C@@]3(O)C(O)=C1C2=O [Example 30, minocycline HCl]	16
CO[C@H]1/C=C/O[C@@]2(C)Oc3c(C)c(O)c4c(O)c(c(/C=N/N5CCN(C)CC5)c(O)c4c3C2=O)NC(=O)/C(C)=C\C=C\[C@H](C)[C@H](O)[C@@H](C)[C@@H](O)[C@@H](C)[C@H](OC(C)=O)[C@@H]1C [Example 31, rifampin]	17
